Source: US8226986B2 (priority 2006, dated 2012)
Like-named read-outs stand apart in the source and are kept apart here. Marks after values point to notes of the source that are not given here.

Experiments:
[1] = system: Irritable bowel syndrome; details: 25, 50, or 100 mg/kg IP, 10 minutes post IBS model; cited from earlier work
[2] = system: cardioprotectant; details: 2.8 umol/kg IV, time zero; cited from earlier work
[3] = system: erectile dysfunction; details: 0.25-80 umol/kg, Intracaver., before experiment; cited from earlier work
[4] = system: inflammation; details: 1, 5 and 10 mg/kg IP, 1-6 hours before study; cited from earlier work
[5] = system: vascular calcification; details: 2.8 or 14 uM/day, daily; cited from earlier work
[6] = system: Gastric injury caused by NSAIDS; details: 25, 50, 100, or 150 mol/kg IP, immediately prior; cited from earlier work
[7] = system: Cerebral Ischemia; details: 0.18 mmol/kg IP, 24 hours after MCAO; cited from earlier work
[8] = system: myocardial ishemia-reperfusion injury; details: 3 mg/kg IP, 15 min before LAD; cited from earlier work
[9] = system: aortic occlusion-induced ischemia/reperfusion (I/R) injury; format: in vivo, pig; details: median, initial study
[10] = system: neutrophil adhesion, leukocyte-mediated inflam.; details: cited from earlier work
[11] = system: myocardial ischemia-reperfusion injury; design: dose or concentration left out as unconfirmed; details: 1 um, 10 um NaHS, perfusion, 10 min prior to LCA occlusion; cited from earlier work

Molecule: Nc1ccc(O)c(C(=O)Oc2ccc(-c3cc(=S)ss3)cc2)c1 [ATB-429]
- Benefit: pain and inflammation [1]: Pain killing and some

Molecule: S [NaHS, sodium hydrosulfide]
- Benefit: central venous pressure [2]: decrease central
- Benefit: intra-cavernous pressure [3]: Increase intra-
- Benefit: substance P levels [4]: Increases substance P
- Benefit: vascular calcification [5]: reduces vascular
- Benefit: injury produced by NSAID and ASA [6]: reduces injury
- infarct volume [7]: increased to 150% of % of control
- Benefit: cardioprotection [8]: cardioprotective opens
- Tail moment (comet assay, DNA damage) ([9]; 1 h after clamping): 0.12 §
- Tail moment (comet assay, DNA damage) ([9]; 2 h after clamping): 0.12 §
- Tail moment (comet assay, DNA damage) ([9]; 4 h after clamping): 0.14
- Tail moment (comet assay, DNA damage) ([9]; 8 h after clamping): 0.14
- Tail moment (comet assay, DNA damage) ([9]; Before clamping): 0.11
- Tail moment (comet assay, DNA damage) ([9]; Before infusion): 0.125
- Benefit: inflammation ([10]; 1-100 uMol/kg IP, 30 min prior to cargeenan injection): inhibits inflammation

Molecule: O.[Na+].[SH-] [NaHS•xH2O]
- Benefit: infarct size [11]: NAHS, limited infarct

Molecule: sodium sulfide [Na2S]
- Benefit: inflammation ([10]; rat, in vivo, ip): inhibits inflammation
